Converted amounts (≈) assume the structure as drawn. “And” between values parts separate entries of the source, which are not always exact repeats. Equal entries are not always repeated. Where two headings read alike, the source gives them in different places. Marks after values point to notes of the source that are not given here.
Assays:
[1] = cited from earlier work; for ε: extinction coefficient at λmax; for ε / λem: literature values (footnotes a, b); for λem: fluorescence emission maximum; for φF: fluorescence quantum yield, literature values (footnotes d-h); for λmax: literature values (footnotes a Gosztola et al., b Holtrup et al.)
[2] = literature values (footnote a Hayes et al.); cited from earlier work
[3] = Steady-state electronic absorption and fluorescence spectroscopy; type: physicochemical; conditions: for E(S1): determined from the average energy of the absorption and emission maxima; for λmax: UV-vis absorption in toluene; for ε: extinction coefficient at λmax; for ε / λem: toluene; for λem: fluorescence emission maximum; for φF: fluorescence quantum yield
Description: Steady-state electronic absorption spectra were recorded on a Shimadzu 1601 UV/Vis spectrometer with a 2 mm quartz cuvette. Fluorescence measurements were performed using a PTI Quanta-Master 1 single photon counting spectrofluorimeter in a right angle configuration with a 1 cm quartz cuvette.
The intensity of the S0→>S1 transition increases with the size of the aromatic core, while the energy decreases. The fluorescence spectrum of each chromophore is shown in FIG. 4b and summarized in Table 4 along with that of compounds 1, 3, 5, 7, and 9. A similar trend with the emission maxima moving to longer wavelengths as the size of the aromatic core increases was observed. The electronic absorption and fluorescence properties of all the alkylated chromophores are very similar to those of the parent compounds. No observable trend is apparent for the slight shifts in λmax; however, with the exception of 2, all alkylated compounds have slightly lower extinction coefficients than their parent compounds. The fluorescence emission maxima of the alkylated compounds (Table 4) are similar to those of the parent compounds as reported in the literature. See Hydlovic et al., Phtochem. Photobiol. A., 112: 197-203 (1998); Licchelli et al., Chem. Eur. J., 8: 5161-5169 (2002); Weil et al., Chem. Eur. J., 8: 4742-4750 (2002); and Sadrai et al., J. Phys. Chem., 96: 7988-7996 (1992).

[4] = literature values (footnotes a Gosztola et al., c Lee et al.), cited from earlier work; for E^−1/2: first reduction potential; for E^2−1/2: second reduction potential
[5] = Electrochemistry (redox potentials); type: physicochemical; conditions: for E^−1/2: first reduction potential; for Reduction potential more negative than that of parent compound: shift versus unsubstituted parent; for E^2−1/2: second reduction potential; for E^+1/2: oxidation potential
Description: Electrochemical measurements were performed using a CH Instruments Model 622 electrochemical workstation. Measurements for compounds 4, 6, 8, and 10 were performed in dichloromethane containing 0.1 M tetrabutylammonium hexafluorophosphate (TBAPF6) electrolyte. Measurements for 2 were performed in benzonitrile with the same electrolyte. A 1.0 mm diameter platinum disk electrode, platinum wire electrode, and […] reference electrode were employed. The ferrocene/ferrocenium redox couple (Fc/Fc^+, 0.46 V vs. SCE) (see Connelly et al., Chem. Rev., 96: 877-910 (1996)) was used as an internal standard. TBAPF6 was recrystallized twice from ethyl acetate prior to use.
Alkylation (e.g., substitution of the phenethyl groups) ortho to the imide nitrogen atoms appears to render the present compounds somewhat more difficult to reduce, but easier to oxidize (Table 3). The reduction potentials of the disubstituted compounds (2, 4, and 6) are approximately 130 mV more negative than those of their parent compounds. Correspondingly, the oxidation potential of the disubstituted 6 is 40 mV less positive than that of […]. Tetrasubstituted 8 and 10 have reduction potentials that are more negative by ˜200 mV than their unsubstituted analogs. These shifts in redox potentials reasonably arise from the electron-donating nature of the alkylating (e.g., phenethyl) groups. The oxidation and reduction potentials of all alkylated molecules shift in the same direction by nearly the same amount, such that the corresponding HOMO-LUMO energy gap remains the same, as is reflected in their electronic absorption and emission spectra described below.

[6] = Femtosecond transient absorption (excited-state decay); type: physicochemical; conditions: transient absorption decay time constant, dry toluene
Source text: Femtosecond transient absorption measurements were made using a Ti:sapphire laser system as detailed in previously reported work. See Kelley et al., J. Am. Chem. Soc., 129: 3173-3181 (2007). The wavelengths used to excite the samples were 390 nm (1-4), 416 nm (5-8), and 650 nm (9 and 10). The instrument response function for the pump-probe experiments is 160 fs. The transient spectra were obtained using 10 s of averaging at a given delay time. Glass cuvettes with a 2 mm pathlength were used and the samples were dissolved in dry toluene and irradiated with 1.0 μJ pulses at the excitation wavelength. Analysis of the kinetic data was performed at multiple wavelengths using a Levenberg-Marquardt nonlinear least-squares fit to a general sum-of-exponentials function with an added Gaussian to account for the finite instrument response.
The transient absorption spectra of naphthalene monoimide 2, specifically, the S1→>Sn absorption is characterized by a single broad band at 525 nm, which decays monoexponentially with a time constant τD=34 ps. This is similar to the time constant of other NMI compounds and is attributed to rapid intersystem crossing leading to the triplet state of 2. […] The residual 530 nm absorption band decays further with a 175 ps time constant. […]

Solubility in toluene = type: physicochemical; conditions: for solubility: organic solvent or mixture
Description: As used herein, a compound can be considered soluble in a solvent when at least 0.1 mg of the compound can be dissolved in 1 mL of the solvent. Examples of common organic solvents include petroleum ethers; acetonitrile; aromatic hydrocarbons such as benzene, toluene, xylene, and mesitylene; ketones such as acetone, and methyl ethyl ketone; ethers such as tetrahydrofuran, dioxane, bis(2-methoxyethyl)ether, diethyl ether, di-isopropyl ether, and t-butyl methyl ether; alcohols such as methanol, ethanol, butanol, and isopropyl alcohol; aliphatic hydrocarbons such as hexanes; esters such as methyl acetate, ethyl acetate, methyl formate, ethyl formate, isopropyl acetate, and butyl acetate; amides such as dimethylformamide and dimethylacetamide; sulfoxides such as dimethylsulfoxide; halogenated aliphatic and aromatic hydrocarbons such as dichloromethane, chloroform, ethylene chloride, chlorobenzene, dichlorobenzene, and trichlorobenzene; and cyclic solvents such as cyclopentanone, cyclohexanone, and 2-methypyrrolidone. In various embodiments, the present compounds can have good solubility in solvents that are aromatic hydrocarbons such as benzene, toluene, xylene, and mesitylene.
Table 2 below compares the solubilities of several compounds according to the present teachings with their unsubstituted counterparts in toluene.

[7] = dichloromethane, 0.1 M TBAPF6, Fc/Fc+ (0.46 V vs. SCE) internal standard

Row | Molecule | E(S1) [3] [eV] | ε [1] [M⁻¹ cm⁻¹] | λem [1] | φF [1] | λmax [1] [nm] | τD [2] | E^−1/2 [4] | Reduction potential more negative than that of parent compound [5] | λmax [3] [nm] | ε [3] [M⁻¹ cm⁻¹] | λem [3] | φF [3] | E^2−1/2 [4] | E^−1/2 [5, 7] | solubility (Solubility in toluene) [µg/mL] | E^+1/2 [5, 7] [V] | also measured
1 | CCCCCCCCN1C(=O)c2cc(CCc3ccccc3)c3c4c(c(CCc5ccccc5)cc(c24)C1=O)C(=O)N(CCCCCCCC)C3=O [Compound 4, N,N′-bis(n-octyl)-2,7-bis(phenethyl)naphthalene-1,8:4,5-bis(dicarboximide)] | 3.09 | – | – | – | – | – | – | approximately 130 mV | 390 | 14000 | 415^ nm | 0.0005 | – | −0.61^ | – | – | E^2−1/2 ([5]; dichloromethane, 0.1 M TBAPF6): −1.15^
2 | CCCCC(CC)CN1C(=O)c2ccc3c4cccc5cccc(c6ccc(c2c36)C1=O)c54 (centres unmarked) [Compound 5, N-(2′-ethylhexyl)-perylene-3,4-dicarboximide] | 2.38 | 29970 | 539^a nm | 0.98^f | 505 | 3500 ± 100^a ps | −1.00^c | – | – | – | – | – | −1.49^c | – | 2000 (≈ 4610 µM) | 1.41 | –
3 | CCCCCCCCN1C(=O)c2c(CCc3ccccc3)cc3c4cc(CCc5ccccc5)c5c6c(c(CCc7ccccc7)cc(c7cc(CCc8ccccc8)c(c2c37)C1=O)c64)C(=O)N(CCCCCCCC)C5=O [Compound 8, N,N′-bis(n-octyl)-2,5,8,11-tetrakis(phenethyl)perylene-3, 4:9,10-bis(dicarboximide)] | 2.35 | – | – | – | – | – | – | ~200 mV | 525 | 58000 | 533^ nm | 0.99 | – | −0.75^ | 2000 (≈ 1940 µM) | 1.63 | E^2−1/2 ([5]; dichloromethane, 0.1 M TBAPF6): −0.93^
4 | CCCCC(CC)CN1C(=O)c2c(CCc3ccccc3)cc3c4ccc5c6cc(CCc7ccccc7)c7c8c(c(CCc9ccccc9)cc(c9ccc(c%10cc(CCc%11ccccc%11)c(c2c3%10)C1=O)c4c59)c86)C(=O)N(CC(CC)CCCC)C7=O (centres unmarked) [Compound 10, N,N′-bis(2-ethylhexyl)-2,5,10,13-tetrakis(phenethyl)terrylene-3, 4:11,12-bis(dicarboximide)] | 1.90 | – | – | – | – | – | – | ~200 mV | 649 | 80000 | 661^ nm | 0.95 | – | −0.83^ | 3000 (≈ 2600 µM) | 1.1 | –
5 | N,N′-bis(n-octyl)-perylene-3, 4:9,10-bis(dicarboximide) [Compound 7] | 2.34 | 80000 | 535^a nm | 0.99^g | 526 | – | −0.50^c | – | – | – | – | – | −0.73^c | – | – | 1.67 | Solubility in toluene (Solubility in toluene; toluene): <1000 µg/mL

Continued, in another order:

Row | E(S1) [3] [eV] | Molecule | ε [1] [M⁻¹ cm⁻¹] | λem [1] | φF [1] | λmax [1] [nm] | τD [2] | E^−1/2 [4] | Reduction potential more negative than that of parent compound [5] | λmax [3] [nm] | ε [3] [M⁻¹ cm⁻¹] | λem [3] | φF [3] | E^2−1/2 [4] | E^−1/2 [5, 7] | solubility (Solubility in toluene) [µg/mL] | E^+1/2 [5, 7] [V] | also measured
6 | 3.38 | CCCCCCCCN1C(=O)c2cccc3cccc(c23)C1=O [Compound 1, N-(n-octyl)-naphthalene-1,8-dicarboximide] | 10647 | 386^a nm | 0.25^d | 350 | <50^a ps | −1.40^a | – | – | – | – | – | – | – | – | – | –
7 | 3.34 | CCCCCCCCN1C(=O)c2c(CCc3ccccc3)ccc3ccc(CCc4ccccc4)c(c23)C1=O [Compound 2, N-(n-octyl)-2,7-bis(phenylethyl)naphthalene-1,8-dicarboximide] | – | – | – | – | – | – | approximately 130 mV | 353 | 15000 | 394^ nm | 0.08 | – | – | – | – | E^−1/2 ([5]; obtained in benzonitrile with 0.1 M TBAPF6): −1.53^b; τD [6]: 34 ps and 34 ± 1 ps
8 | 3.15 | CCCCCCCCN1C(=O)c2ccc3c4c(ccc(c24)C1=O)C(=O)N(CCCCCCCC)C3=O [Compound 3, N,N′-bis(n-octyl)-naphthalene-1,8:4,5-bis(dicarboximide)] | 14500 | 407^a nm | 0.0018^e | 382 | <20^a ps | −0.48^a | – | – | – | – | – | −0.99^a | – | – | – | –
9 | 1.88 | N,N′-bis(2-ethylhexyl)-terrylene-3,4:11,12-bis(dicarboximide) [Compound 9] | 93000 | 673^b nm | 0.95^h | 650 | – | −0.63^c | – | – | – | – | – | – | – | – | 1.12 | Solubility in toluene (Solubility in toluene): <1000 µg/mL

— patent publication US20110079773A1, “Selectively Functionalized Rylene Imides and Diimides” (priority 2009, published 2011)
